system: another carcinoma which does not express the EGF receptor; conditions: athymic nude mice; background statement; cited from earlier work

SMILES	growth of carcinoma which does not express the EGF receptor
O=CN/C=C/c1cc(O)ccc1O [erbstatin]	without effect on the growth

system: transplanted human mammary carcinoma which expresses epidermal growth factor receptor tyrosine kinase (EGFR); conditions: athymic nude mice; background statement; cited from earlier work

SMILES	growth of transplanted human mammary carcinoma expressing EGFR
O=CN/C=C/c1cc(O)ccc1O [erbstatin]	selectively attenuates the growth

system: not given; conditions: not given

SMILES	melting point
C#Cc1cc(Nc2ncnc3cc(OCCOC)c(OCCOC)cc23)ccc1F.Cl	170 to 190 °C (dec.)
C#Cc1cccc(Nc2ncnc3cc(OCCOC)c(OCCCl)cc23)c1.Cl	215 to 225 °C (dec.)
C#Cc1cccc(Nc2ncnc3cc(OCCOC(C)=O)c(OCCOC(C)=O)cc23)c1	137 to 138 °C
C#Cc1cccc(Nc2ncnc3cc(OCCOC)c(OCCOC(C)=O)cc23)c1	84 to 87 °C
C#Cc1cccc(Nc2ncnc3cc(OCCOC(C)=O)c(OCCOC)cc23)c1	134 to 135 °C
C#Cc1cccc(Nc2ncnc3cc(OCCn4ccnc4)c(OCCOC)cc23)c1.Cl.Cl	220 to 227 °C (dec.)
C#Cc1cccc(Nc2ncnc3cc(OCCOC)c(OCCn4ccnc4)cc23)c1.Cl.Cl	85 to 100 °C (dec.)
C#Cc1cccc(Nc2ncnc3cc(OCCOC)c(OCCN4CCOCC4)cc23)c1.Cl.Cl	115 to 130 °C (dec.)
C#Cc1cccc(Nc2ncnc3cc(OCCSC(C)C(=O)O)c(OCCOC)cc23)c1.N (stereo not shown)	95 to 103 °C (dec.)
C#Cc1cccc(Nc2ncnc3cc(OCCOC)c(OCCn4ccc(=O)cc4)cc23)c1.Cl	155 to 168 °C (dec.)

The remaining lines, values ahead:

melting point	SMILES
98 to 113 °C (dec.)	C#Cc1cccc(Nc2ncnc3cc(OCCOC)c(OCCSCC(=O)O)cc23)c1.N
170 to 185 °C (dec.)	C#Cc1ccc(C)c(Nc2ncnc3cc(OCCOC)c(OCCOC)cc23)c1.Cl
230 to 240 °C (dec.)	C#Cc1cccc(Nc2ncnc3cc(OCCCl)c(OCCCl)cc23)c1.Cl
215 to 218 °C (dec.)	C#Cc1cccc(Nc2ncnc3cc(OCCO)c(OCCO)cc23)c1.Cl
225 to 235 °C (dec.)	C#Cc1cccc(Nc2ncnc3cc(OCCCl)c(OCCOC)cc23)c1.Cl
130 to 142 °C (dec.)	C#Cc1cccc(Nc2ncnc3cc(OCCN4CCN(C)CC4)c(OCCOC)cc23)c1.Cl.Cl
256 to 257 °C	C#Cc1cccc(Nc2ncnc3ccc(C)cc23)c1.Cl
135 to 150 °C (dec.)	C#Cc1cccc(Nc2ncnc3cc(OCCOC)c(O)cc23)c1.Cl
240 to 248 °C (dec.)	C#Cc1cccc(Nc2ncnc3cc(OCCn4ccc(=O)cc4)c(OCCOC)cc23)c1.Cl
247 to 248 °C	C#Cc1cccc(Nc2ncnc3cc(OCCCC)c(OCCCC)cc23)c1.Cl

Source: patent publication USRE41065E1, “Alkynl and azido-substituted 4-anilinoquinazolines” (Pfizer, Inc., priority 1995, dated 2009)
